{"source": "ChEMBL document CHEMBL1201862", "about": "“PubChem BioAssay data set” (2004)", "key": {"Genome polyprotein": {"target": "Genome polyprotein (dengue virus type 2, UniProt P29990)", "sequence (P29990 2492-3391 limits assumed)": "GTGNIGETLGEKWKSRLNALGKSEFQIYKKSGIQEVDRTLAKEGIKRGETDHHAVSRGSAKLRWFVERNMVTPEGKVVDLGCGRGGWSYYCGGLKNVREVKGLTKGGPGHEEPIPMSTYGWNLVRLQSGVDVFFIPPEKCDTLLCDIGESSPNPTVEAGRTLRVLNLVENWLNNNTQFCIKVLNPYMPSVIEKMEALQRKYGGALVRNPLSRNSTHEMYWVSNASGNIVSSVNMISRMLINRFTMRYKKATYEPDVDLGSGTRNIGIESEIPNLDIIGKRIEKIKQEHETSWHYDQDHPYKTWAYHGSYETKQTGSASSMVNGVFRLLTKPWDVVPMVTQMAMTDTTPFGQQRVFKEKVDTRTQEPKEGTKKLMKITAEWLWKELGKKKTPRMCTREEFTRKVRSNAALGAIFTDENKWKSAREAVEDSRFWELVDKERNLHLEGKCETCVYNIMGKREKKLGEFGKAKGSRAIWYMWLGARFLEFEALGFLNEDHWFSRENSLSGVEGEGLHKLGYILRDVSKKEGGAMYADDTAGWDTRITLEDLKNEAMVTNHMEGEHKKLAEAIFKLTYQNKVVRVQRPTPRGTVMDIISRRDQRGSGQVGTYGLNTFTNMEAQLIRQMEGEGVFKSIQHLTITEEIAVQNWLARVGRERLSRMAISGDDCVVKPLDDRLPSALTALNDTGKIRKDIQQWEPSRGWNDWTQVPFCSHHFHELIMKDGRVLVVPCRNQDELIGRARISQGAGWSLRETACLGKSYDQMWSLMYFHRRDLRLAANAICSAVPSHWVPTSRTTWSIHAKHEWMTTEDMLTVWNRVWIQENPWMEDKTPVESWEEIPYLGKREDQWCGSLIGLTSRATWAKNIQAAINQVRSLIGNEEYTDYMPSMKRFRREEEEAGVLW", "assay": "flavivirus cap methylation enzyme inhibition – biochemical, confirmation dose response, primary screen (AID 588689)", "format": "functional"}, "[1]": {"target": "T1, RNA-binding protein pos-1 (Caenorhabditis elegans, UniProt G5EF15)", "T1 sequence (G5EF15 whole entry)": "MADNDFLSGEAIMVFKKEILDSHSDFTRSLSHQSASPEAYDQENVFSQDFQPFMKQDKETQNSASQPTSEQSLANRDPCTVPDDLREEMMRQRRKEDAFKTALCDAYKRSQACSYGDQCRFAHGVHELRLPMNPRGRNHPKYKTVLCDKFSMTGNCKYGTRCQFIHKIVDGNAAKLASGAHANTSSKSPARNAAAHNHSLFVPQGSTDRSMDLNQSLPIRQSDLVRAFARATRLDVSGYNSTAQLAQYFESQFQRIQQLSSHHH", "assay": "disruptors of C. elegans POS-1 RNA interaction – biochemical, fluorescence polarization, dose response (AID 1964);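 note: purified POS-1 fused to maltose binding protein made in E. coli; potency of compounds blocking POS-1 binding to fluorescent RNA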"}, "[2]": {"target": "T2, Zinc finger protein mex-5 (Caenorhabditis elegans, UniProt Q9XUB2)", "T2 sequence (Q9XUB2 whole entry)": "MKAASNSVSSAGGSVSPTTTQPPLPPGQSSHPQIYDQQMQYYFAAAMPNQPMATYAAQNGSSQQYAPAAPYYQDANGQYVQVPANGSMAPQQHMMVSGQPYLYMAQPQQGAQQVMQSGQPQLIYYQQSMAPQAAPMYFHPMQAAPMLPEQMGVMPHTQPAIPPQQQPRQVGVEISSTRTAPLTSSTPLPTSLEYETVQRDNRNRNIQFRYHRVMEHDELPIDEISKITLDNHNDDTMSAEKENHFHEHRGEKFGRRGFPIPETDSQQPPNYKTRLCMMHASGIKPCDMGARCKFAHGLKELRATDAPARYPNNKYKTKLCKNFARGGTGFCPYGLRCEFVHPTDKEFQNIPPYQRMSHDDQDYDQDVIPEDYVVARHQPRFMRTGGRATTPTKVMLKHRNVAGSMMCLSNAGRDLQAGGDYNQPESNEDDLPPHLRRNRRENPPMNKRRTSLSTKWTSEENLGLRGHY", "assay": "potency of MEX-5 RNA-binding blockers – biochemical, C. elegans, fluorescence polarization, dose response (AID 1960)"}, "[3]": {"target": "T3, Replicative DNA helicase DnaB (Mycobacterium tuberculosis, UniProt P9WMR3)", "T3 sequence (P9WMR3 whole entry)": "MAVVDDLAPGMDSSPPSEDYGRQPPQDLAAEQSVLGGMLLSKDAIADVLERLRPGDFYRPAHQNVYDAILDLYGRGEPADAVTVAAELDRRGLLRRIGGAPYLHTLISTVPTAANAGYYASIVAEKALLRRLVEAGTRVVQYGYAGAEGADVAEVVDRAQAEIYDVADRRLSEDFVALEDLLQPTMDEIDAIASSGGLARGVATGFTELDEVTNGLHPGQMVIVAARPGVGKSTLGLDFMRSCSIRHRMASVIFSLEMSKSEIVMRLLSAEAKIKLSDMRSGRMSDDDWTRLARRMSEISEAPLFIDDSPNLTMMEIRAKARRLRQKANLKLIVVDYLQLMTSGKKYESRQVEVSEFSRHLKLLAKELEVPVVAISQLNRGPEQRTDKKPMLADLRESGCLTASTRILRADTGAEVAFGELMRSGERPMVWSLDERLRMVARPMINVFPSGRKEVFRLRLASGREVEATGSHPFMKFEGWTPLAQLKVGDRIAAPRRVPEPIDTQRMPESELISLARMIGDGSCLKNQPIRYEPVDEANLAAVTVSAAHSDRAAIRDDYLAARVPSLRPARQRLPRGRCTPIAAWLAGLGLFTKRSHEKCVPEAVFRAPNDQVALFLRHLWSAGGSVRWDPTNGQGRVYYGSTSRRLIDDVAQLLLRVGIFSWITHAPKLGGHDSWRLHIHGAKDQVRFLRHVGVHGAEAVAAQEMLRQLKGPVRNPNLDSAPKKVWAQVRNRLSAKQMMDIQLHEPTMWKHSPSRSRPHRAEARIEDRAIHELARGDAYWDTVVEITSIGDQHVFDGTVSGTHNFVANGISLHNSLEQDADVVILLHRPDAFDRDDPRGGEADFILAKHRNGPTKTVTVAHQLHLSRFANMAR", "assay": "DnaB intein splicing inhibitors, dose response, biochemical, cell-free fluorescence (AID 449749)", "format": "functional"}, "Protein RecA": {"target": "T4, Protein RecA (Mycobacterium tuberculosis, UniProt P9WHJ3)", "T4 sequence (P9WHJ3 whole entry)": "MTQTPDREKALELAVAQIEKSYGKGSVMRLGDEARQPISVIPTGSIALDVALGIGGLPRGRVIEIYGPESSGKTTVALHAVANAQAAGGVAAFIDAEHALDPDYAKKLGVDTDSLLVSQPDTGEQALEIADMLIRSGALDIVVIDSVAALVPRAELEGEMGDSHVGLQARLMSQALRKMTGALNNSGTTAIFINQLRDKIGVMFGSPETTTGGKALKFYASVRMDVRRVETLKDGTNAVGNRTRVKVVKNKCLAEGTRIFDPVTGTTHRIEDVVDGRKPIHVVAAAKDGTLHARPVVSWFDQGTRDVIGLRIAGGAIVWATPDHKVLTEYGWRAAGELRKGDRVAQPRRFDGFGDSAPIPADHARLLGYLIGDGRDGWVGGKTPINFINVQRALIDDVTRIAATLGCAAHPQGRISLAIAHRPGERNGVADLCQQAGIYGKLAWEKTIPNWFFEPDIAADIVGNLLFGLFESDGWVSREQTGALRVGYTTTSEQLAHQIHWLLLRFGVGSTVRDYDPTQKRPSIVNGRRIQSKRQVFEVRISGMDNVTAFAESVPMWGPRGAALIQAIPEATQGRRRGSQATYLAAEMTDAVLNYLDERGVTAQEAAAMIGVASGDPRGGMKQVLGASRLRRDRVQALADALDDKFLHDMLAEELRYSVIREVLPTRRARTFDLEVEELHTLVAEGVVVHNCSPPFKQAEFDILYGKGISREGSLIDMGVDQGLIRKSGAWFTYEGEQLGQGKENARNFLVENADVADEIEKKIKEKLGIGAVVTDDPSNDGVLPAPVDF", "assay": "Fluorescence Cell-Free Homogeneous Dose Retest to Identify Inhibitors of RecA-Intein Splicing Activity. [Related pubchem assays (depositor defined):AID2097, AID2223, AID489010, AID492950]", "format": "functional"}}, "note": "Activity calls are given as the source filed them. Cut-off read from the data, not from the text of the source, for most assays here: actives have a measured EC50 and inactives only a lower limit.", "data": [{"compound": "O=C(O)c1cc(N2N=C(C(F)(F)F)/C(=C/C=C/c3ccco3)C2=O)ccc1Cl", "values": [{"measurement": "IC50", "setting": "Genome polyprotein", "value": "24.2 µM (active)"}]}, {"compound": "Cc1cc(C)c(S(=O)(=O)Nc2cc(SCC(=O)O)c(O)c3ccccc23)cc1C", "values": [{"measurement": "EC50", "setting": "[1]", "value": "> 300 µM (not active)"}, {"measurement": "EC50", "setting": "[2]", "value": "38.6 µM (active)"}, {"measurement": "AC50", "setting": "[3]", "value": "1.1 µM (active)"}, {"measurement": "EC50", "setting": "Protein RecA", "value": "0.277 µM (active)"}]}, {"compound": "CNCc1ccccc1Sc1ccc(O)c(O)c1", "values": [{"measurement": "EC50", "setting": "[1]", "value": "34.8 µM (active)"}, {"measurement": "EC50", "setting": "[2]", "value": "22.6 µM (inconclusive)"}, {"measurement": "AC50", "setting": "[3]", "value": "> 120 µM (inactive)"}, {"measurement": "EC50", "setting": "Protein RecA", "value": "2.57 µM (active)"}, {"measurement": "IC50", "setting": "Genome polyprotein", "value": "21.2 µM (active)"}]}, {"compound": "O=C(/C=C/c1ccco1)NC(=S)Nc1cccc(C(=O)O)c1", "values": [{"measurement": "EC50", "setting": "[1]", "value": "8.57 µM (active)"}, {"measurement": "EC50", "setting": "[2]", "value": "8.73 µM (active)"}]}]}
